Experiments:
Experiment in all cases: relative viability (nuclei count vs DMSO), 5 days (fraction); higher = more cells survive
[1] = compound: CN1C=C(C2=CC=CC=C21)/C=C\3/C4=C(C=CC=N4)NC3=O + O=C(CCCCCCC(=O)Nc1ccccc1)NO [Vorinostat] (partner 1 µM)
Summary of the method: (§1)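 Dosing by pin tool came one day after lung cancer cell lines were seeded in 1536-well plates, using either one drug or a fixed anchor-drug dose plus five library-drug doses (not always all listed) in √10 steps. After 5 days, nuclei were counted on 4× images. Relative viability is treated-well nuclei count divided by vehicle-well nuclei count, and values are medians of duplicate plates.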

[2] = compound: CN1C=C(C2=CC=CC=C21)/C=C\3/C4=C(C=CC=N4)NC3=O + Nc1nc2[nH]cc(CCc3ccc(C(=O)N[C@@H](CCC(=O)O)C(=O)O)cc3)c2c(=O)[nH]1 [Pemetrexed] (partner 0.2 µM)
Summary of the method: as §1

[3] = compound: CC(=O)Nc1cccc(-n2c(=O)n(C3CC3)c(=O)c3c(Nc4ccc(I)cc4F)n(C)c(=O)c(C)c32)c1 [Trametinib] + Cc1nc(NC(=O)N2CCC[C@H]2C(N)=O)sc1-c1ccnc(C(C)(C)C(F)(F)F)c1 [Alpelisib] (partner 2 µM)
Summary of the method: as §1

[4] = compound: CC(=O)Nc1cccc(-n2c(=O)n(C3CC3)c(=O)c3c(Nc4ccc(I)cc4F)n(C)c(=O)c(C)c32)c1 [Trametinib] + CC(C)C[C@H](NC(=O)[C@H](Cc1ccccc1)NC(=O)c1cnccn1)B(O)O [Bortezomib] (partner 0.002 µM)
Summary of the method: as §1

Q: What does the source list for NCI-H1755?
A: relative viability ([1]; first compound 0.02 µM): 0.601; relative viability ([1]; first compound 0.06325 µM): 0.751; relative viability ([1]; first compound 0.2 µM): 0.477; relative viability ([1]; first compound 0.6325 µM): 0.584; relative viability ([1]; first compound 2 µM): 0.643; relative viability ([2]; first compound 0.02 µM): 0.351; relative viability ([2]; first compound 0.06325 µM): 0.365; relative viability ([2]; first compound 0.2 µM): 0.427; relative viability ([2]; first compound 0.6325 µM): 0.423; relative viability ([2]; first compound 2 µM): 0.373; relative viability ([3]; first compound 0.0025 µM): 0.798; relative viability ([3]; first compound 0.007906 µM): 0.83; relative viability ([3]; first compound 0.025 µM): 0.799; relative viability ([3]; first compound 0.07906 µM): 0.802; relative viability ([3]; first compound 0.25 µM): 0.753; relative viability ([4]; first compound 0.0025 µM): 0.847; relative viability ([4]; first compound 0.007906 µM): 0.835; relative viability ([4]; first compound 0.025 µM): 0.806; relative viability ([4]; first compound 0.07906 µM): 0.843; relative viability ([4]; first compound 0.25 µM): 0.679

Q: Which results are given for NCI-H2228?
A: relative viability ([1]; first compound 0.02 µM): 0.85; relative viability ([1]; first compound 0.06325 µM): 0.646; relative viability ([1]; first compound 0.2 µM): 0.503; relative viability ([1]; first compound 0.6325 µM): 0.704; relative viability ([1]; first compound 2 µM): 0.508; relative viability ([2]; first compound 0.02 µM): 0.337; relative viability ([2]; first compound 0.06325 µM): 0.305; relative viability ([2]; first compound 0.2 µM): 0.349; relative viability ([2]; first compound 0.6325 µM): 0.372; relative viability ([2]; first compound 2 µM): 0.365; relative viability ([3]; first compound 0.0025 µM): 0.749; relative viability ([3]; first compound 0.007906 µM): 0.527; relative viability ([3]; first compound 0.025 µM): 0.488; relative viability ([3]; first compound 0.07906 µM): 0.331; relative viability ([3]; first compound 0.25 µM): 0.194; relative viability ([4]; first compound 0.0025 µM): 1.02; relative viability ([4]; first compound 0.007906 µM): 0.876; relative viability ([4]; first compound 0.025 µM): 0.801; relative viability ([4]; first compound 0.07906 µM): 0.711; relative viability ([4]; first compound 0.25 µM): 0.433

Q: Which results are given for NCI-H1915?
A: relative viability ([1]; first compound 0.02 µM): 0.502; relative viability ([1]; first compound 0.06325 µM): 0.501; relative viability ([1]; first compound 0.2 µM): 0.513; relative viability ([1]; first compound 0.6325 µM): 0.442; relative viability ([1]; first compound 2 µM): 0.493; relative viability ([2]; first compound 0.02 µM): 0.463; relative viability ([2]; first compound 0.06325 µM): 0.41; relative viability ([2]; first compound 0.2 µM): 0.579; relative viability ([2]; first compound 0.6325 µM): 0.487; relative viability ([2]; first compound 2 µM): 0.504; relative viability ([3]; first compound 0.0025 µM): 1.06; relative viability ([3]; first compound 0.007906 µM): 0.906; relative viability ([3]; first compound 0.025 µM): 0.6; relative viability ([3]; first compound 0.07906 µM): 0.528; relative viability ([3]; first compound 0.25 µM): 0.254; relative viability ([4]; first compound 0.0025 µM): 0.931; relative viability ([4]; first compound 0.007906 µM): 0.816; relative viability ([4]; first compound 0.025 µM): 0.825; relative viability ([4]; first compound 0.07906 µM): 0.756; relative viability ([4]; first compound 0.25 µM): 0.139

Q: Which results are given for NCI-H2347?
A: relative viability ([1]; first compound 0.02 µM): 0.585; relative viability ([1]; first compound 0.06325 µM): 0.659; relative viability ([1]; first compound 0.2 µM): 0.582; relative viability ([1]; first compound 0.6325 µM): 0.493; relative viability ([1]; first compound 2 µM): 0.517; relative viability ([2]; first compound 0.02 µM): 0.445; relative viability ([2]; first compound 0.06325 µM): 0.454; relative viability ([2]; first compound 0.2 µM): 0.444; relative viability ([2]; first compound 0.6325 µM): 0.423; relative viability ([2]; first compound 2 µM): 0.426; relative viability ([3]; first compound 0.0025 µM): 0.96; relative viability ([3]; first compound 0.007906 µM): 0.552; relative viability ([3]; first compound 0.025 µM): 0.346; relative viability ([3]; first compound 0.07906 µM): 0.38; relative viability ([3]; first compound 0.25 µM): 0.36; relative viability ([4]; first compound 0.0025 µM): 1.08; relative viability ([4]; first compound 0.007906 µM): 0.818; relative viability ([4]; first compound 0.025 µM): 0.338; relative viability ([4]; first compound 0.07906 µM): 0.389; relative viability ([4]; first compound 0.25 µM): 0.337

Q: Which results are given for HARA?
A: relative viability ([1]; first compound 0.02 µM): 0.511; relative viability ([1]; first compound 0.06325 µM): 0.524; relative viability ([1]; first compound 0.2 µM): 0.531; relative viability ([1]; first compound 0.6325 µM): 0.491; relative viability ([1]; first compound 2 µM): 0.5; relative viability ([2]; first compound 0.02 µM): 0.24; relative viability ([2]; first compound 0.06325 µM): 0.24; relative viability ([2]; first compound 0.6325 µM): 0.263; relative viability ([2]; first compound 2 µM): 0.216; relative viability ([3]; first compound 0.0025 µM): 0.758; relative viability ([3]; first compound 0.007906 µM): 0.657; relative viability ([3]; first compound 0.025 µM): 0.44; relative viability ([3]; first compound 0.07906 µM): 0.498; relative viability ([3]; first compound 0.25 µM): 0.241; relative viability ([4]; first compound 0.0025 µM): 1.09; relative viability ([4]; first compound 0.007906 µM): 1.06; relative viability ([4]; first compound 0.025 µM): 0.983; relative viability ([4]; first compound 0.07906 µM): 0.745; relative viability ([4]; first compound 0.25 µM): 0.0924

Q: What does the source list for NCI-H2085?
A: relative viability ([1]; first compound 0.02 µM): 0.723; relative viability ([1]; first compound 0.06325 µM): 0.757; relative viability ([1]; first compound 0.2 µM): 0.746; relative viability ([1]; first compound 0.6325 µM): 0.735; relative viability ([1]; first compound 2 µM): 0.784; relative viability ([2]; first compound 0.02 µM): 0.789; relative viability ([2]; first compound 0.06325 µM): 0.927; relative viability ([2]; first compound 0.2 µM): 0.836; relative viability ([2]; first compound 0.6325 µM): 0.975; relative viability ([2]; first compound 2 µM): 0.967; relative viability ([3]; first compound 0.0025 µM): 0.916; relative viability ([3]; first compound 0.007906 µM): 0.757; relative viability ([3]; first compound 0.025 µM): 0.635; relative viability ([3]; first compound 0.07906 µM): 0.655; relative viability ([3]; first compound 0.25 µM): 0.608; relative viability ([4]; first compound 0.0025 µM): 0.994; relative viability ([4]; first compound 0.007906 µM): 0.799; relative viability ([4]; first compound 0.025 µM): 0.751; relative viability ([4]; first compound 0.07906 µM): 0.783; relative viability ([4]; first compound 0.25 µM): 0.6

Q: How did the relative viability ([1]; first compound 0.02 µM) turn out when NCI-H650 was run?
A: The relative viability was 0.439.

Q: What about the relative viability ([1]; first compound 0.06325 µM) of the same cell line?
A: The relative viability was 0.369.

Q: And the relative viability ([1]; first compound 0.6325 µM)?
A: The relative viability was 0.383.

Q: And the relative viability ([1]; first compound 2 µM)?
A: Its relative viability is 0.328.

Q: And the relative viability ([2]; first compound 0.02 µM)?
A: The relative viability was 0.934.

Q: And the relative viability ([2]; first compound 0.06325 µM)?
A: Its relative viability is 0.875.

Q: And the relative viability ([2]; first compound 0.6325 µM)?
A: The relative viability was 0.805.

Q: What about the relative viability ([2]; first compound 2 µM) of the same cell line?
A: Its relative viability is 0.918.

Q: And the relative viability ([3]; first compound 0.0025 µM)?
A: The relative viability was 1.31.

Q: And the relative viability ([3]; first compound 0.007906 µM)?
A: Its relative viability is 1.42.

Q: And the relative viability ([3]; first compound 0.025 µM)?
A: The relative viability was 1.38.

Q: What about the relative viability ([3]; first compound 0.07906 µM) of the same cell line?
A: Its relative viability is 1.35.

Q: What about the relative viability ([3]; first compound 0.25 µM) of the same cell line?
A: The relative viability was 0.71.

Q: What about the relative viability ([4]; first compound 0.0025 µM) of the same cell line?
A: Its relative viability is 1.06.

Q: What about the relative viability ([4]; first compound 0.007906 µM) of the same cell line?
A: The relative viability was 1.15.

Q: And the relative viability ([4]; first compound 0.025 µM)?
A: Its relative viability is 0.791.

Q: What about the relative viability ([4]; first compound 0.07906 µM) of the same cell line?
A: The relative viability was 0.729.

Q: And the relative viability ([4]; first compound 0.25 µM)?
A: The relative viability was 0.276.

Q: What does the source list for NCI-H1993?
A: relative viability ([1]; first compound 0.02 µM): 0.837; relative viability ([1]; first compound 0.06325 µM): 0.736; relative viability ([1]; first compound 0.2 µM): 0.647; relative viability ([1]; first compound 0.6325 µM): 0.622; relative viability ([1]; first compound 2 µM): 0.6; relative viability ([2]; first compound 0.02 µM): 0.564; relative viability ([2]; first compound 0.06325 µM): 0.515; relative viability ([2]; first compound 0.2 µM): 0.641; relative viability ([2]; first compound 0.6325 µM): 0.457; relative viability ([2]; first compound 2 µM): 0.534; relative viability ([3]; first compound 0.0025 µM): 0.649; relative viability ([3]; first compound 0.007906 µM): 0.722; relative viability ([3]; first compound 0.025 µM): 0.656; relative viability ([3]; first compound 0.07906 µM): 0.699; relative viability ([3]; first compound 0.25 µM): 0.649; relative viability ([4]; first compound 0.0025 µM): 0.861; relative viability ([4]; first compound 0.007906 µM): 0.834; relative viability ([4]; first compound 0.025 µM): 0.558; relative viability ([4]; first compound 0.07906 µM): 0.48; relative viability ([4]; first compound 0.25 µM): 0.596

From the supplement of paper PMC10307832
